Data set [1] addresses Serine/threonine-protein kinase mTOR (Homo sapiens, UniProt P42345). In words: Binding affinity to mTOR FKBP12 site (unknown origin).
Data set [2] concerns Mus musculus. In words: Toxicity in BALB/C nude mouse xenografted with human OVCAR3 cells assessed as body weight loss at 50 mg/kg, po administered daily for 28 days relative to control. Format: organism-based. Particulars: in vivo, 672 h. In general terms: Xenograft models place foreign cells or tissue in a host animal.
The test system of a further data set is OVCAR-3. The experiment in a line: Antitumor activity against human OVCAR3 cells xenografted in BALB/C nude mouse assessed as tumor growth inhibition at 50 mg/kg, po administered daily for 28 days relative to control. Format: functional. Particulars: OVCAR-3, po, 672 h, read-out: TGI.
For data set [3], the system named is Mus musculus. In words: Antiepileptic activity in Tsc1flox/flox/GFAP-Cre conditional knocked out mouse model assessed as reduction in seizures at 50 mg/kg, po qd treated from days 21 to 53 postnatal by electroencephalography. Format: functional, organism-based.
In data set [4] the test system is Rattus norvegicus. The experiment in a line: Increase in insulin levels in Sprague-Dawley rat plasma at 10 mg/kg, po administered as single dose. Format: functional, organism-based.
The subject of data set [5] is Mus musculus. In words: Increase in insulin levels in C57BL/6JRj mouse plasma at 50 mg/kg, po administered as single dose. Format: functional, organism-based.
In data set [6] the test system is Mus musculus. The experiment in a line: Increase in glucose levels in C57BL/6JRj mouse plasma at 50 mg/kg, po administered as single dose. Format: functional, organism-based.
The subject of data set [7] is Rattus norvegicus. The experiment in a line: Increase in glucose levels in Sprague-Dawley rat plasma at 10 mg/kg, po administered as single dose after 8 hrs. Format: functional, organism-based.
Data set [8] relates to A2058. In words: Induction of cell cycle arrest in human A2058 cells assessed as accumulation at G1 phase at 5 uM after 24 hrs by Hoechst33342-staining based FACS analysis. Format: functional.
Data set [9] concerns A2058. The experiment in a line: Induction of cell cycle arrest in human A2058 cells assessed as decrease in cell levels at S phase at 5 uM after 24 hrs by Hoechst33342-staining based FACS analysis. In kind it is functional. On the technique in general: A flow cytometer gives signals particle by particle.
Data set [10] deals with A2058. In words: Induction of cell cycle arrest in human A2058 cells assessed as decrease in cell levels at G2/M phase at 5 uM after 24 hrs by Hoechst33342-staining based FACS analysis. In kind it is functional.
For data set [11], the system named is SK-OV-3. In words: Induction of cell cycle arrest in human SKOV3 cells assessed as accumulation at G1 phase at 2 uM after 24 hrs by Hoechst33342-staining based FACS analysis. Format: functional.
The subject of data set [12] is SK-OV-3. In words: Induction of cell cycle arrest in human SKOV3 cells assessed as decrease in cell levels at S phase at 2 uM after 24 hrs by Hoechst33342-staining based FACS analysis. In kind it is functional.
Data set [13] has as its system SK-OV-3. In words: Induction of cell cycle arrest in human SKOV3 cells assessed as decrease in cell levels at G2/M phase at 2 uM after 24 hrs by Hoechst33342-staining based FACS analysis. Format: functional.
Data set [14] relates to A2058. In words: Antiproliferative activity against human A2058 cells at 10 uM after 72 hrs by ATPlite based assay. In kind it is functional, cell-based.
Data set [15] relates to SK-OV-3. In words: Antiproliferative activity against human SKOV3 cells at 10 uM after 72 hrs by ATPlite based assay. In kind it is functional, cell-based. (Cellular ATP, detected with luciferase, serves as a proxy for viable cell number.)

This note sets out measurements from ChEMBL document CHEMBL4270669 (J Med Chem, 2018).

Active and inactive are the calls of the source. The calls are words filed in the database; no cut-off is given here.

The compound `CO[C@H]1C[C@@H]2CC[C@@H](C)[C@@](O)(O2)C(=O)C(=O)N2CCCC[C@H]2C(=O)O[C@H]([C@H](C)C[C@@H]2CC[C@@H](OCCO)[C@H](OC)C2)CC(=O)[C@H](C)/C=C(\C)[C@@H](O)[C@@H](OC)C(=O)[C@H](C)C[C@H](C)/C=C/C=C/C=C/1C` [EVEROLIMUS] returned a Kd in [1] of 2 nM.

Consider `Nc1cc(C(F)(F)F)c(-c2nc(N3CCOCC3)nc(N3CCOCC3)n2)cn1` [BIMIRALISIB], for which the Activity entry in the data set with Mus musculus [2] was “Non-Toxic”. Besides, in the data set with OVCAR-3, the inhibition in vivo at 50 mg/kg is > 50%. In addition, the result with Mus musculus [3] was inactive. Further, the outcome in the data set on Rattus norvegicus [4], in the data set on Mus musculus [5], in the data set on Mus musculus [6] and in the data set on Rattus norvegicus [7] was Active.

For `CO[C@H]1C[C@@H]2CC[C@@H](C)[C@@](O)(O2)C(=O)C(=O)N2CCCC[C@H]2C(=O)O[C@H]([C@H](C)C[C@@H]2CC[C@@H](O)[C@H](OC)C2)CC(=O)[C@H](C)/C=C(\C)[C@@H](O)[C@@H](OC)C(=O)[C@H](C)C[C@H](C)/C=C/C=C/C=C/1C`, the result in the data set on A2058 [8], with A2058 [9], in the data set on A2058 [10], in the data set with SK-OV-3 [11], in the data set on SK-OV-3 [12] and in the data set with SK-OV-3 [13] was Active. The outcome with A2058 [14] was Active. For the same compound, the outcome in the data set on SK-OV-3 [15] was inactive.

As usually defined, the Kd is the concentration at which binding is half-saturated. Low readings indicate a tighter complex, high ones a looser complex.
